What all share (format): cell-based
The subject of experiment [1] is SMN2 CJ mRNA. In words: Gene panel canonical junction qPCR assay: SMN2. As to conditions: Table 3, concentration having 50% response in CJ decrease, read-out: SMN2 IC50 (decrease in CJ mRNA levels). The procedure: (§1) Compounds described herein were used to modulate RNA transcript abundance in cells. The expression of a target mRNA was measured by detecting the formation of an exon-exon junction in the canonical transcript (CJ). A compound mediated exon-inclusion event was detected by observing an increase in formation of a new junction with an alternative exon (AJ). Real-time qPCR assays were used to detect these splicing switches and interrogate the potency of various compounds towards different target genes. A high-throughput real time quantitative PCR (RT-qPCR) assay was developed to measure these two isoforms of the mRNA (CJ and AJ) for an exemplary gene, HTT, together with a control housekeeping gene, GAPDH or GUSB or PPIA, used for normalization. Briefly, the A673 or K562 cell line was treated with various compounds described herein (e.g., compounds of Formula (I)). After treatment, the levels of the HTT mRNA targets were determined from each sample of cell lysate by cDNA synthesis followed by qPCR.
(§2) The A673 cell line was cultured in DMEM with 10% FBS. Cells were diluted with full growth media and plated in a 96-well plate (15,000 cells in 100 ul media per well). The plate was incubated at 37° C. with 5% CO2 for 24 hours to allow cells to adhere. An 11-point 3-fold serial dilution of the compounds was made in DMSO then diluted in media in an intermediate plate. Compounds were transferred from the intermediate plate to the cell plate with the top dose at a final concentration of 10 uM in the well. Final DMSO concentration was kept at or below 0.25%. The cell plate was returned to the incubator at 37° C. with 5% CO2 for an additional 24 hours.
(§3) The K562 cell line was cultured in IMDM with 10% FBS. For K562, cells were diluted with full growth media and plated in either a 96-well plate (50,000 cells in 50 uL media per well) or a 384-well plate (8,000-40,000 cells in 45 uL media per well). An 11-point 3-fold serial dilution of the compounds were made in DMSO then diluted in media in an intermediate plate. Compound was transferred from the intermediate plate to the cell plate with the top dose at a final concentration of 10 uM in the well. Final DMSO concentration was kept at or below 0.25%. Final volume was 100 uL for 96-well plate and 50 uL for 384-well plate. The cell plate was then placed in an incubator at 37° C. with 5% CO2 for 24 hours.
(§4) The cells were then gently washed with 50 uL-100 uL cold PBS before proceeding to addition of lysis buffer. 30 uL-50 uL of room temperature lysis buffer with DNAse I (and optionally RNAsin) was added to each well. Cells were shaken/mixed thoroughly at room temperature for 5-10 minutes for lysis to take place and then 3 uL-5 uL of room temperature stop solution was added and wells were shaken/mixed again. After 2-5 minutes, the cell lysate plate was transferred to ice for RT-qPCR reaction setup. The lysates could also be frozen at −80° C. for later use.
(§5) In some cases, a direct lysis buffer was used. An appropriate volume of 3× lysis buffer (10 mM Tris, 150 mM NaCl, 1.5%-2.5% Igepal and 0.1-1 U/uL RNAsin, pH 7.4) was directly added to either K562 or A673 cells in media and mixed by pipetting 3 times. The plates were then incubated at room temperature with shaking/rocking for 20-50 minutes to allow for lysis to take place. After this time, the cell lysate plate was transferred to ice to set up for the RT-qPCR reactions. The lysates could also be frozen at −80° C. for later use.
(§6) To set up 10 uL RT-qPCR reactions, cell lysates were transferred to 384-well qPCR plates containing the master mix according to the table below. The plates were sealed, gently vortexed, and spun down before the run. The volumes were adjusted accordingly in some instances where the reaction was carried in 20 uL. The table below summarizes the components of the RT-qPCR reactions:
(§7) The RT-qPCR reaction was performed using a QuantStudio (ThermoFisher) under the following fast cycling conditions. […]
A general note: Real-time PCR tracks product formation cycle by cycle.

Experiment [2] relates to HTT AJ mRNA. Nature of the experiment: Splicing assay (RT-qPCR): increase in HTT alternative junction (AJ) mRNA. As to conditions: A673 or K562 cells, 24 hours treatment; concentration having 50% response in AJ mRNA increase. The procedure:
as §1, §2, §3, §4, §5, §6, §7

The subject of experiment [3] is HTT CJ mRNA. In words: Gene panel canonical junction qPCR assay: HTT. As to conditions: Table 3, concentration having 50% response in CJ decrease, read-out: HTT IC50 (decrease in CJ mRNA levels). The procedure: as §1, §2, §3, §4, §5, §6, §7
For experiment [4], the system named is Target C CJ mRNA. Nature of the experiment: Gene panel canonical junction qPCR assay: Target C. As to conditions: Table 3, concentration having 50% response in CJ decrease, read-out: Target C IC50 (decrease in CJ mRNA levels). The procedure: as §1, §2, §3, §4, §5, §6, §7
The subject of experiment [5] is HTT CJ mRNA. In words: Splicing assay (RT-qPCR): decrease in HTT canonical junction (CJ) mRNA. The conditions noted are these: A673 or K562 cells, 24 hours treatment; concentration having 50% response in CJ mRNA decrease. How it is done:
as §1, §2, §3, §4, §5, §6, §7

For the compound `Cc1cn2nc(NC(=O)c3sc([C@@H]4CCN[C@H](C)C4)cc3F)cc(C)c2n1` [Compound 101, N-[2,8-dimethylimidazo[1,2-b]pyridazin-6-yl]-3-fluoro-5-[(2R,4R)-2-methylpiperidin-4-yl] thiophene-2-carboxamide], the IC50 – broadly, the concentration that gives 50% inhibition – in experiment [1] is under 0.1 µM; in experiment [3], 0.1 to 1 µM; in experiment [4], 0.1 to 1 µM. The AC50 in experiment [2] and in experiment [5] was 0.1 to 1 µM throughout.
In the case of `Cc1cn2nc(NC(=O)c3sc([C@H]4CCN[C@@H](C)C4)cc3F)cc(C)c2n1` [Compound 102, N-[2,8-dimethylimidazo[1,2-b]pyridazin-6-yl]-3-fluoro-5-[(2S,4S)-2-methylpiperidin-4-yl] thiophene-2-carboxamide], the IC50 in experiment [1] is 0.1 to 1 µM; in experiment [3], 0.1 to 1 µM; in experiment [4], 1 to 10 µM. Besides, the AC50 (usually the concentration at which the activity in the assay is half-maximal) in experiment [2] was 1 to 10 µM; in experiment [5], 0.1 to 1 µM.
On to `Cc1cn2nc(NC(=O)c3sc([C@H]4CCN[C@H](C)C4)cc3F)cc(C)c2n1` [Compound 103, N-[2,8-dimethylimidazo[1,2-b]pyridazin-6-yl]-3-fluoro-5-[(2R,4S)-2-methylpiperidin-4-yl] thiophene-2-carboxamide], for which the IC50 was under 0.1 µM in experiment [1], 0.1 to 1 µM in experiment [3] and 1 to 10 µM in experiment [4]. For the same compound, the AC50 in experiment [2] and in experiment [5] was 0.1 to 1 µM throughout.
For `Cc1cn2nc(NC(=O)c3sc([C@@H]4CCN[C@@H](C)C4)cc3F)cc(C)c2n1` [Compound 104, N-[2,8-dimethylimidazo[1,2-b]pyridazin-6-yl]-3-fluoro-5-[(2S,4R)-2-methylpiperidin-4-yl]thiophene-2-carboxamide], the IC50 in experiment [1] is under 0.1 µM; in experiment [3] it was under 0.1 µM; in experiment [4], 0.1 to 1 µM. The values for the AC50 in experiment [2] and in experiment [5] were 0.1 to 1 µM and under 0.1 µM, respectively.
Take `Cc1cn2cc(-c3cc(F)c(C(=O)NC4CCN(C)CC4)s3)nc2c(C)n1` [Compound 109, 5-[6,8-dimethylimidazo[1,2-a]pyrazin-2-yl]-3-fluoro-N-(1-methylpiperidin-4-yl)thiophene-2-carboxamide]: the AC50 was over 10 µM in experiment [2] and 1 to 10 µM in experiment [5].
For `Cc1cn2cc(-c3cc(F)c(C(=O)N[C@H]4CCN[C@@H](C)C4)s3)nc2c(C)n1` [Compound 112], the AC50 in experiment [2] and in experiment [5] was over 10 µM throughout.
Consider `Cc1cn2cc(-c3cc(F)c(C(=O)N[C@H]4CCN[C@H](C)C4)s3)nc2c(C)n1` [Compound 113], for which the AC50 in experiment [2] is over 10 µM; in experiment [5], 0.1 to 1 µM.
As to `Cc1cn2cc(NC(=O)c3sc([C@@H]4CCN[C@H](C)C4)cc3F)cc(F)c2n1` [Compound 114, 3-fluoro-N-[8-fluoro-2-methylimidazo[1,2-a]pyridin-6-yl]-5-[(2R,4R)-2-methylpiperidin-4-yl]thiophene-2-carboxamide], the IC50 in experiment [1] is under 0.1 µM; in experiment [3], 0.1 to 1 µM; in experiment [4] it was 1 to 10 µM. For the same compound, the AC50 in experiment [2] and in experiment [5] was 0.1 to 1 µM in each case.
As to `Cc1cn2cc(NC(=O)c3sc([C@H]4CCN[C@@H](C)C4)cc3F)cc(F)c2n1` [Compound 115, 3-fluoro-N-[8-fluoro-2-methylimidazo[1,2-a]pyridin-6-yl]-5-[(2S,4S)-2-methylpiperidin-4-yl]thiophene-2-carboxamide], the IC50 in experiment [1] and in experiment [3] was 0.1 to 1 µM throughout. The AC50 in experiment [2] and in experiment [5] was 0.1 to 1 µM throughout.
For `Cc1cn2cc(NC(=O)c3ccc(N4CCNC(C)C4)s3)cc(F)c2n1` (centres unmarked) [Compound 122, N-[8-fluoro-2-methylimidazo[1,2-a]-pyridin-6-yl]-5-(3-methylpip-erazin-1-yl)-thiophene-2-carboxamide], the IC50 in experiment [1] is 0.1 to 1 µM; in experiment [3], over 0.01 µM. Moreover, the AC50 in experiment [2] and in experiment [5] was over 10 µM in each case.
For `Cc1cn2cc(NC(=O)c3sc(N4CCNCC4)cc3F)cc(F)c2n1` [Compound 126, 3-fluoro-N-[8-fluoro-2-methylimidazo[1,2-a]pyridin-6-yl]-5-(piperazin-1-yl)thiophene-2-carboxamide], the figures for the IC50 in experiment [1] and in experiment [3] were 0.1 to 1 µM and 1 to 10 µM, respectively. Also, the AC50 in experiment [2] and in experiment [5] was 1 to 10 µM throughout.
Turning to `Cc1cn2cc(NC(=O)c3sc(N4CCNC(C)C4)cc3F)cc(F)c2n1` (centres unmarked) [Compound 128, 3-fluoro-N-[8-fluoro-2-methylimidazo[1,2-a]pyridin-6-yl]-5-(3-methylpiperazin-1-yl)thiophene-2-carboxamide], the results for the IC50 in experiment [1] and in experiment [3] were 0.1 to 1 µM and 1 to 10 µM, respectively. Further, the AC50 is over 10 µM in experiment [2] and 1 to 10 µM in experiment [5].
In the case of `CCC1CN(c2cc(F)c(C(=O)Nc3cc(F)c4nc(C)cn4c3)s2)CCN1` (centres unmarked) [Compound 130, 5-(3-ethylpiperazin-1-yl)-3-fluoro-N-[8-fluoro-2-methylimidazo[1,2-a]pyridin-6-yl]thiophene-2-carboxamide], the AC50 in experiment [2] is over 10 µM; in experiment [5], 1 to 10 µM.
Taken in the same sequence, the figures for `Cc1cn2cc(NC(=O)c3sc(N4CC5(CN(C)C5)C4)cc3F)cc(F)c2n1` [Compound 135, 3-fluoro-N-[8-fluoro-2-methylimidazo[1,2-a]pyridin-6-yl]-5-[6-methyl-2,6-diazaspiro[3.3]heptan-2-yl]thiophene-2-carboxamide] were over 10 µM and 1 to 10 µM.
The like results for `Cc1cn2cc(NC(=O)c3sc(N4CCC(N(C)C)CC4)cc3F)cc(F)c2n1` [Compound 140, 5-[4-(dimethylamino)piperidin-1-yl]-3-fluoro-N-[8-fluoro-2-methylimidazo[1,2-a]pyridin-6-yl]thiophene-2-carboxamide] were, in that order, 0.1 to 1 µM and 1 to 10 µM.
For `Cc1cn2cc(NC(=O)c3sc(C4CCNCC4)cc3F)cc(F)c2n1` [Compound 144, 3-fluoro-N-[8-fluoro-2-methylimidazo[1,2-a]pyridin-6-yl]-5-(piperidin-4-yl) thiophene-2-carboxamide], the IC50 in experiment [1] was under 0.1 µM; in experiment [3], 0.1 to 1 µM. In addition, the AC50 in experiment [2] and in experiment [5] was 0.1 to 1 µM each time.
With `Cc1cn2cc(NC(=O)c3sc(C4CC(C)(C)NC(C)(C)C4)cc3F)cc(F)c2n1` [Compound 148, 3-fluoro-N-[8-fluoro-2-methylimidazo[1,2-a]pyridin-6-yl]-5-(2,2,6,6-tetramethylpiperidin-4-yl)thiophene-2-carboxamide], the AC50 in experiment [2] and in experiment [5] was 0.1 to 1 µM in each case.
Turning to `Cc1cn2cc(NC(=O)c3sc(N4CCNC(C)C4)cc3F)nc2c(C)n1` (centres unmarked) [Compound 168, N-[6,8-dimethylimidazo[1,2-a]pyrazin-2-yl]-3-fluoro-5-(3-methylpiperazin-1-yl)thiophene-2-carboxamide], the values for the AC50 in experiment [2] and in experiment [5] were over 10 µM and 1 to 10 µM, respectively.
Consider `Cc1cn2cc(NC(=O)c3sc(N4CCNC(C)C4)c(Cl)c3Cl)cc(F)c2n1` (centres unmarked) [Compound 186], for which the IC50 in experiment [1] is 1 to 10 µM; in experiment [3], over 0.01 µM. The half-maximal activity concentration (AC50) in experiment [2] and in experiment [5] was over 10 µM in each case.

The values are drawn from patent US20230142338A1, “THIOPHENYL DERIVATIVES USEFUL FOR MODULATING NUCLEIC ACID SPLICING” (REMIX THERAPEUTICS INC., priority 2020, published 2023).
